Source: the supplement of paper PMC2824726

tested on: MDA-MB-231; test: shRNA barcode abundance ratio t_end/t_zero (depletion over 4 weeks of proliferation) (log2 ratio); higher = less depletion (weaker anti-proliferative effect of the shRNA); conditions: time after t zero 28 days
Experimental: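 Pooled lentiviral negative-selection screen of 305 pGIPZ shRNAs (Open Biosystems V2LHS clones; the 21-nt half-hairpin sense stem is embedded in a mir-30 scaffold) in MDA-MB-231 breast carcinoma cells, infected at MOI 0.3 with 0.5 ug/ml puromycin selection. Barcode abundance was read on barcode tiling microarrays (six 25-nt probes per 60-nt barcode) at t_zero (5 days post-infection) and t_end (33 days; 28 days of culture after t_zero). Values are median-normalised t_end/t_zero signal ratios, averaged over the tiling probes that passed a 10-fold background filter, from three biological replicates.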

Row | Sequence | shRNA barcode abundance ratio t end/t zero (log2)
1 | CCAGAGGCTTCCACTTAATAT (targeted gene: APAF1) | 0.0519
2 | CCAGAGTAACTCTAGTCAGTT (targeted gene: NUP62) | -2.05
3 | CCAGATAATATTAAGGGAAAT (targeted gene: ABCB1) | 0.255
4 | CCAGATTTCTTACCTACCATA (targeted gene: BIRC2) | 0.213
5 | CCAGCGATGAAGAATGTGGAA (targeted gene: CFLAR) | -0.0627
6 | CCAGCTGTTTATGCATAGATA (targeted gene: CXCR4) | 1.87
7 | CCAGGAGAACAGTTGTTAAAT (targeted gene: HIPK3) | 0.228
8 | CCAGTGACCTTCGCTCCACAT (targeted gene: BAD) | 0.391
9 | CCATAGCAAGGCCTAATGTTA (targeted gene: FANCF) | 0.00383
10 | CCATATAGTTCCTTGGGATTA (targeted gene: BCL2L2) | 0.203
11 | CCATATGTTCATTACATACAT (targeted gene: FANCF) | 0.17
12 | CCATATTTGCATTTGAAGGTA (targeted gene: BCL2A1) | 0.349
13 | CCATGTAATGGCAGTTATATT (targeted gene: HMGB1) | 0.175
14 | CCATTCTGATTCTTCAGTCAT (targeted gene: TOPORS) | 0.459
15 | CCATTGCCCATCGAGATTTAA (targeted gene: ACVR1) | 0.196
16 | CCATTTACAGCCATTTCTAAA (targeted gene: ESR1) | 0.128
17 | CCCAGCAATAATTTAAACTTA (targeted gene: WRN) | 0.168
18 | CCCGGGACTCCTGAGAACAAT (targeted gene: PRLR) | -0.387
19 | CCCGTATGTGTCAACACCTAT (targeted gene: CRTAC1) | -0.136
20 | CCCTGAGACCATATCCTTAAA (targeted gene: OPA1) | -0.115

Row | Sequence | shRNA barcode abundance ratio t end/t zero (log2)
21 | CCCTTCTTTGGGAATATAATT (targeted gene: CBX4) | 0.505
22 | CCGAACATTAGGAATTGTTTA (targeted gene: ACVR1) | 0.264
23 | CCGAATCCGCATGACTCATAA (targeted gene: HDAC1) | 1.63
24 | CCGCAAAGAATCAAGTTGCAA (targeted gene: HSPA8) | -0.446
25 | CCGCCTCTTTGACCAGTTCTT (targeted gene: CRYAB, Cryab) | 0.00542
26 | CCGTAGCCTCTGCCCTGTAAA (targeted gene: BAG3) | 0.779
27 | CCGTGCTAACTGTGTGTACAT (targeted gene: PEA15) | -1.15
28 | CCGTTATGAAAGAGAAATGAA (targeted gene: HMGB1) | -0.0571
29 | CCTACTAACAATATCTGTTAA (targeted gene: SOCS2) | 0.0566
30 | CCTAGAAGCATTTATGATTTA (targeted gene: BCL2L2) | 0.344
31 | CCTCACCCTGTACCAGTCCAA (targeted gene: GSTP1) | -0.648
32 | CCTCACCCTGTCAGGTATCAA (targeted gene: MYBL2) | -0.1
33 | CCTCACTTTCTCCAAGAAGTT (targeted gene: MAPK8IP2) | 0.0658
34 | CCTCAGATTGTTGTTGTTAAT (targeted gene: IL6) | 0.311
35 | CCTCAGTGTCTGTTGAAGTAA (targeted gene: BIRC6) | -0.238
36 | CCTCATGTCTTGATAAGTTAA (targeted gene: FOXO1) | 0.0815
37 | CCTCCCTCTCAGAACCAATAA (targeted gene: DDAH2) | -0.269
38 | CCTCCGTCCCTCCTACCATAA (targeted gene: MYBL2) | 0.0727
39 | CCTGACCTCCCTCTAATTTAT (targeted gene: IL10) | 0.309
